Several values for one entry are separate records, joined by “and”; a condition that tells them apart may be missing. Equal entries are not always repeated. Where two headings read alike, the source gives them in different places.
Assays:
malignant leukocytes = assay: Flow cytometric sorting of apoptotic malignant leukocytes (dUTP-FITC incorporation); type: cell-based, human; details: 10 μM hypericin or 0.462 μM 8-MOP, 18 h
Source text: FIG. 8, comprising Panels A-G, is a series of graphs which represent distributions of cell types within various cultures, as assessed by flow cytometric cell sorting, using incorporation of dUTP-FITC into fragmented DNA as a selection criterion. Malignant leukocytes which have not been induced to undergo apoptosis are represented as points which are located below an imaginary horizontal line located at approximately 2×10^1 on the vertical axis of each graph. Malignant leukocytes which have been induced to undergo apoptosis are represented as points which are located above an imaginary horizontal line located at approximately 3×10^1 on the vertical axis of each graph. […] The graph in Panel B corresponds to cells which were treated with hypericin and which were not illuminated. The graph in Panel C corresponds to cells which were treated with hypericin and which were illuminated using visible light. The graph in Panel D corresponds to cells which were treated with hypericin and which were illuminated using UV-A light. The graph in Panel E corresponds to cells which were treated with 8-MOP and which were not illuminated. The graph in Panel F corresponds to cells which were treated with 8-MOP and which were illuminated using visible light. The graph in Panel G corresponds to cells which were treated with 8-MOP and which were illuminated using UV-A light.
Hypericin-treated malignant leukocytes and 8-MOP-treated leukocytes were photoactivated using visible light for 20 minutes or 2 J/cm^2 UV-A light, or were not photoactivated, as described in Example 1. 18 hours after photoactivation, or 18 hours after preparation of the cultures which were not photoactivated, leukocyte cultures were harvested, and apoptotic cells were separated from non-apoptotic cells using a FACScan flow cytometer (Becton Dickinson Immunocytometry Systems, San Jose, Calif.). Apoptotic cells were distinguished from non-apoptotic cells based on increased dUTP-FITC incorporation.

[1] = test system: PBMC obtained from a normal human subject; assay: Induction of apoptosis in normal PBMC, TUNEL assay (Example 3); type: cell-based; details: for percentage of PBMC which underwent apoptosis: Normal, 18 h; for capability of inducing apoptosis: normal leukocytes, visible light
neoplastic ("CTL") PBMC = assay: Lymphocyte proliferation (3H-TdR incorporation), ConA-stimulated neoplastic PBMC from subject having CTCL; type: cell-based, human; details: for IC50: read-out: IC50 of ConA-induced cell proliferation
Source text: (§1) In two of the types of lymphocytes, the mitogen, ConA, was used to induce proliferation, as described (Fox et al., 1993, Cell. Immunol. 150:45-58). The third type of lymphocytes used in this example proliferated actively in vitro without the need for mitogenic stimulation. The three types of lymphocytes which were used in this example were: PBMC obtained from a normal human subject and stimulated with ConA; PBMC, including malignant CD4+ T-lymphocytes, obtained from a human subject having CTCL and stimulated with ConA; and PBMC obtained from a normal human subject, which PBMC were exposed to Epstein-Barr virus (EBV) after being obtained from the subject, to produce transformed lymphocytes. It is known that EBV-transformed B-lymphocytes proliferate actively in vitro (Polack, 1996, Proc. Natl. Acad. Sci. U.S.A. 93:10411-10416; Longnecker, 1994, Leukemia 8:546-550).
(§2) Peripheral blood mononuclear cells (PBMC) were obtained by separating them from whole blood, using Ficoll-Paque separation techniques and media (Boyum, 1964, Nature 793-794). After they were obtained, PBMC were resuspended in RPMI 1640 medium, which comprised 10% (v/v) fetal bovine serum (GIBCO, Grand Island, N.Y.), and were distributed into the wells of 96-well microtiter plates. PBMC transformed using EBV were made as described (Neitzel, 1986, Hum. Gen. 73:320-326)
(§3) This stock solution stored at 4° C. in the dark. A stock solution comprising 462.5 μM 8-methoxypsoralen (8-MOP) was prepared in 2% (v/v) benzyl alcohol. 8-MOP was obtained from Sigma (St. Louis, Mo.).
(§4) In cultures of transformed leukocytes in which 8-MOP was used, the concentrations of 8-MOP which were used were 92.5 μM, 18.5 μM, 3.7 μM, 0.74 μM, 0.15 μM, and 0.030 μM. Thereafter, ConA was then added to preselected wells to achieve a final concentration of 10 μg/ml of ConA in those wells.
(§5) Following preparation of the microtiter culture plates, preselected plates were illuminated with fluorescent visible light for 10-30 minutes, using four fluorescent bulbs (type F15T8CW, TFC Inc., Taiwan) spaced at a distance of 9 cm above the plates. Other preselected plates were illuminated with 0.5-2 Joules per square centimeter UV-A light using a UV-A light box containing 8 UVAR 06-91 bulbs. Still other preselected plates were not exposed to light. The covers of plates which were exposed to light were left in place during illumination.
(§6) Following illumination, plates which had been illuminated were placed into a dark incubator which was maintained at 37° C. Non-illuminated plates were placed into the incubator immediately after preparation. All plates were incubated for seventy-two hours. During the final eighteen hours of incubation, tritiated thymidine (^3 H-TdR) was added to each well of each plate. No extraordinary precautions were used to prevent light exposure during the addition of ^3 H-TdR.
(§7) Lymphocyte proliferation was assessed by measuring the extent of incorporation of ^3 H-TdR into newly synthesized DNA within the cells at the end of the seventy-two hour incubation period, as described (Fox, 1993, Cell. Immunol. 150:45-58).

[2] = test system: PBMC obtained from a subject having CTCL; assay: Induction of apoptosis in CTCL PBMC, TUNEL assay (Example 3); type: cell-based, human; details: for percentage of PBMC which underwent apoptosis: CTCL, 18 h; for capability of inducing apoptosis: malignant leukocytes
transformed ("EBV") PBMC = assay: Lymphocyte proliferation (3H-TdR incorporation), EBV-transformed PBMC; type: cell-based, human; details: for IC50: read-out: IC50 of cell proliferation; for ability to inhibit proliferation, 2 vs 1 J/cm^2: UV-A 2 J/cm^2 relative to 1 J/cm^2; for effect of UV-A on ability to inhibit proliferation: UV-A vs none; for effect of visible light on ability to inhibit proliferation: visible light vs none
Source text: as §1, §2, §3, §4, §5, §6, §7

[3] = Homo sapiens, PBMC, 10 min, visible light, 10 min
[4] = Homo sapiens, PBMC, 20 min, visible light, 20 min
[5] = Homo sapiens, PBMC, 0.5 h, visible light, 30 min
[6] = Homo sapiens, PBMC, UV-A, 0.5 J/sc
[7] = Homo sapiens, PBMC, UV-A, 1 J/sc
[8] = Homo sapiens, PBMC, UV-A, 2 J/sc
[9] = Homo sapiens, PBMC, not illuminated

SMILES	induction of apoptosis (flow cytometry, FIG. 8) (malignant leukocytes; UV-A 2 J/cm^2)	induction of apoptosis (flow cytometry, FIG. 8) (malignant leukocytes; no photoactivation)	induction of apoptosis (flow cytometry, FIG. 8) (malignant leukocytes; visible light 20 min)	percentage of PBMC which underwent apoptosis ([1]; 1 μM, UV-A 2 J/cm^2)	percentage of PBMC which underwent apoptosis ([1]; 1 μM, no light)	percentage of PBMC which underwent apoptosis ([1]; 1 μM, visible light 20 min)	percentage of PBMC which underwent apoptosis ([1]; 10 μM, UV-A 2 J/cm^2)	percentage of PBMC which underwent apoptosis ([1]; 10 μM, no light)	percentage of PBMC which underwent apoptosis ([1]; 10 μM, visible light 20 min)	capability of inducing apoptosis [1]	IC50 (neoplastic ("CTL") PBMC; [3])	IC50 (neoplastic ("CTL") PBMC; [4])	IC50 (neoplastic ("CTL") PBMC; [6])	IC50 (neoplastic ("CTL") PBMC; [7])	percentage of PBMC which underwent apoptosis ([2]; 1 μM, UV-A 2 J/cm^2)	percentage of PBMC which underwent apoptosis ([2]; 1 μM, no light)	percentage of PBMC which underwent apoptosis ([2]; 1 μM, visible light 20 min)	percentage of PBMC which underwent apoptosis ([2]; 10 μM, UV-A 2 J/cm^2)	percentage of PBMC which underwent apoptosis ([2]; 10 μM, no light)	percentage of PBMC which underwent apoptosis ([2]; 10 μM, visible light 20 min)	also measured
COc1c2occc2cc2ccc(=O)oc12 [8-MOP, 8-methoxypsoralen]	induced apoptosis in most cells	neither hypericin nor 8-MOP induced significant apoptosis	induced apoptosis in only a limited number of cells	22.9 percentage	3.8 percentage	13.7 percentage	63.0 percentage	6.8 percentage	15.3 percentage	not 8-MOP, is capable of inducing apoptosis in both normal and malignant leukocytes	3600 nM	3600 nM	740 nM	200 nM	44.0 percentage	2.5 percentage	11.0 percentage	74.3 percentage	2.4 percentage	12.2 percentage	IC50 (neoplastic ("CTL") PBMC; [5]): 3100 nM; IC50 (neoplastic ("CTL") PBMC; Homo sapiens, PBMC, not illuminated, benzyl alcohol vehicle itself inhibitory at highest concentrations): 4400 nM; selectivity of apoptosis induction, malignant vs normal leukocytes ([2]; UV-A light): the magnitude of the selective effect was much smaller; capability of inducing apoptosis ([2]; UV-A light): capable of inducing apoptosis in malignant leukocytes; capability of inducing apoptosis ([2]; visible light): not 8-MOP, is capable of inducing apoptosis in both normal and malignant leukocytes; IC50 (transformed ("EBV") PBMC; [3]): 18.7 µM; IC50 (transformed ("EBV") PBMC; [4]): 17.3 µM; IC50 (transformed ("EBV") PBMC; [5]): 18.9 µM; IC50 (transformed ("EBV") PBMC; [6]): 4.2 µM; IC50 (transformed ("EBV") PBMC; [7]): 1.6 µM; IC50 (transformed ("EBV") PBMC; [8]): 0.7 µM; IC50 (transformed ("EBV") PBMC; [9]): 19.4 µM; ability to inhibit proliferation, 2 vs 1 J/cm^2 (transformed ("EBV") PBMC): roughly doubled; effect of UV-A on ability to inhibit proliferation (transformed ("EBV") PBMC): enhanced significantly upon illumination using UV-A light; effect of visible light on ability to inhibit proliferation (transformed ("EBV") PBMC): not enhanced upon illumination using visible light
Cc1cc(O)c2c(=O)c3c(O)cc(O)c4c5c(O)cc(O)c6c(=O)c7c(O)cc(C)c8c1c2c(c34)c(c78)c65 [hypericin, 1,3,4,6,8,13-Hexahydroxy-10,11,dimethyl-phenanthro[1,10,9,8,-opqra]perylene-7,14-dione]	induced apoptosis in most cells	neither hypericin nor 8-MOP induced significant apoptosis	induced apoptosis in nearly all cells	21.2 percentage	4.8 percentage	18.2 percentage	37.3 percentage	5.4 percentage	87.9 percentage	capable of inducing apoptosis in both normal and malignant leukocytes	400 nM	340 nM	1800 nM	570 nM	26.1 percentage	2.6 percentage	17.2 percentage	94.4 percentage	2.8 percentage	94.3 percentage	IC100 (neoplastic ("CTL") PBMC; Homo sapiens, PBMC, 72 h, visible light, 20 min, read-out: concentration at which proliferation was completely inhibited): 3.2 µM; inhibition of mitogen-induced proliferation (neoplastic ("CTL") PBMC; malignant PBMC): inhibits mitogen-induced proliferation of PBMC; IC50 (neoplastic ("CTL") PBMC; visible light, 20 min): 530 nM and 300 nM; capability of inducing apoptosis ([2]; UV-A light): capable of inducing apoptosis in malignant leukocytes; capability of inducing apoptosis ([2]; visible light): capable of inducing apoptosis in both normal and malignant leukocytes; IC50 (transformed ("EBV") PBMC; [3]): 3.2 µM; IC50 (transformed ("EBV") PBMC; [4]): 1.8 µM; IC50 (transformed ("EBV") PBMC; [5]): 0.75 µM; IC100 (transformed ("EBV") PBMC; Homo sapiens, PBMC, 72 h, visible light, 30 min, read-out: concentration at which proliferation was completely inhibited): 3.2 µM; IC50 (transformed ("EBV") PBMC; [6]): 3.7 µM; IC50 (transformed ("EBV") PBMC; [7]): 2.1 µM; IC50 (transformed ("EBV") PBMC; [8]): 2 µM; IC50 (transformed ("EBV") PBMC; [9]): 36 µM; ability to inhibit proliferation, 2 vs 1 J/cm^2 (transformed ("EBV") PBMC): essentially the same; effect of UV-A on ability to inhibit proliferation (transformed ("EBV") PBMC): enhanced significantly upon illumination using UV-A light; effect of visible light on ability to inhibit proliferation (transformed ("EBV") PBMC): enhanced significantly upon illumination using visible light; inhibition of proliferation after 30 min illumination (transformed ("EBV") PBMC; visible light, 30 vs 10 or 20 min): greater than that which resulted from illumination for a period of 10 or 20 minutes

From patent US6001882A (priority 1997, dated 1999)
